Data from patent publication US20250382332A1, “NOVEL ALPHA-FACTOR BASED PEPTIDES WITH ANTIFUNGAL ACTIVITY” (INVAIO SCIENCES, INC., priority 2024, published 2025).
Peptide text beside a SMILES is read from it.

Tested on: Botrytis cinerea (B05.10)
Experiment: Resazurin antifungal assay of 23 alpha-factor peptides (dimers, hybrids) towards Botrytis (Example 15, Table 6)
Assay type: cell-based
Conditions: resazurin assay, % inhibition of fungal growth, Botrytis cinerea B05.10; for Inhibition at 10 μM: peptide 10 μM; for Inhibition at 20 μM: peptide 20 μM; for Inhibition at 50 μM: peptide 50 μM
Protocol: The antifungal activity of […] alpha-factor peptide variants towards Botrytis was tested. Experimental design:
Peptides corresponding to SEQ ID NO: 261-264 and 401-420 were chemically synthesized using the solid-phase synthesis method and resuspended in water to a stock solution of 1 mM. The stock solution was aliquoted in cryovials and stored at −80° C.
The Botrytis cinerea culture (B05.10) isolate was acquired from the Centraalbureau voor Schimmelcultures, the Netherlands. The Botrytis fungus was propagated on 0.5% V8 agar plates (200 ml V8 Juice, 3 g CaCO3, 15 g agar, 800-ml millipore water) at 20° C., in a 12 h photoperiod for 21 days.
Fungal conidia were harvested by scraping a Botrytis plate flooded with 1 ml water with 0.1% Tween 80 solution. Conidia were then collected in a 50 ml falcon tube by passing the solution through a 40 micron filter. The solution was then centrifuged at 6000 rpm and the pellet was resuspended in 1 ml of 20% glycerol. The conidia concentration of the resulting solution was counted using a hemocytometer. The stock was diluted to […] using 20% glycerol and frozen in 100 μl aliquots in −80° C. until further use.
Peptides were tested for activity against Botrytis, using the resazurin assay. For this, fungal stock conidia was first diluted to 5000 conidia/well. 50 μl of the spore suspension was added to each well of the sterile 96-well clear bottom testing plate and mixed with 50 μl of peptide solutions to a final concentration of 100, 50, 20, 10, 5 and 2.5 μM. The plate was incubated for 24 h at 20° C. After 24 h, 10 μl of resazurin dye was added to the microtiter plate and incubated again for […]. Fluorescence was measured at 570/620 nm after 4 h of incubation with resazurin.
Growth inhibition was calculated by subtracting the fluorescence values of conidia only wells from sample wells and depicted as % inhibition of fungal growth. Four technical replicates were used for all treatments.

| SMILES | Inhibition at 10 μM [%] | Inhibition at 20 μM [%] | Inhibition at 50 μM [%] | Inhibition at 2.5 μM (peptide 2.5 μM) [%] | Inhibition at 5 μM (peptide 5 μM) [%] | Inhibition at 100 μM (peptide 100 μM) [%] |
| --- | --- | --- | --- | --- | --- | --- |
| CC[C@H](C)[C@H](NC(=O)[C@H](CCC(N)=O)NC(=O)[C@H](CC(C)C)NC(=O)[C@H](CO)NC(=O)[C@H](Cc1c[nH]cn1)NC(=O)[C@@H](N)Cc1c[nH]c2ccccc12)C(=O)N[C@@H](CCCCN)C(=O)N[C@@H](CCCCN)C(=O)NCC(=O)N[C@@H](CCC(N)=O)C(=O)N1CCC[C@H]1C(=O)N[C@@H](CCSC)C(=O)N[C@@H](Cc1ccc(O)cc1)C(=O)O [compound 407] (H-WHSLQIKKGQPMY-OH; N-terminus and C-terminus assumed) | <90 | <90 | 100 |  |  |  |
| CSCC[C@H](NC(=O)[C@@H]1CCCN1C(=O)[C@H](CCC(N)=O)NC(=O)CNC(=O)[C@H](Cc1c[nH]c2ccccc12)NC(=O)[C@H](CC(N)=O)NC(=O)[C@H](Cc1ccccc1)NC(=O)[C@H](CCC(N)=O)NC(=O)[C@H](CC(C)C)NC(=O)[C@H](CC(C)C)NC(=O)[C@H](Cc1c[nH]cn1)NC(=O)[C@@H](N)Cc1c[nH]c2ccccc12)C(=O)N[C@@H](Cc1ccc(O)cc1)C(=O)O [compound 408] (H-WHLLQFNWGQPMY-OH; N-terminus and C-terminus assumed) | <90 | <90 | 100 |  |  |  |
| CSCC[C@H](NC(=O)[C@H](CO)NC(=O)[C@H](CCC(N)=O)NC(=O)CNC(=O)[C@H](CCCNC(=N)N)NC(=O)[C@H](CCCCN)NC(=O)[C@H](CC(C)C)NC(=O)[C@@H](NC(=O)[C@H](CC(C)C)NC(=O)[C@@H](NC(=O)[C@@H](NC(=O)[C@@H](N)Cc1c[nH]c2ccccc12)[C@@H](C)O)C(C)C)[C@@H](C)O)C(=O)N[C@@H](Cc1ccc(O)cc1)C(=O)O [compound 409] (H-WTVLTLKRGQSMY-OH; N-terminus and C-terminus assumed) | 97.7 | 100 | 100 | <90 | <90 |  |
| CSCC[C@H](NC(=O)[C@@H]1CCCN1C(=O)[C@H](CCC(N)=O)NC(=O)CNC(=O)[C@@H]1CCCN1C(=O)[C@H](CCCNC(=N)N)NC(=O)[C@H](Cc1ccccc1)NC(=O)[C@H](CCCNC(=N)N)NC(=O)[C@H](CC(C)C)NC(=O)[C@H](Cc1c[nH]c2ccccc12)NC(=O)[C@H](Cc1c[nH]cn1)NC(=O)[C@@H](N)CCCCN)C(=O)N[C@@H](Cc1ccc(O)cc1)C(=O)O [compound 410] (H-KHWLRFRPGQPMY-OH; N-terminus and C-terminus assumed) | <90 | 100 | 100 |  |  |  |
| CSCC[C@H](NC(=O)[C@@H]1CCCN1C(=O)[C@H](CCC(N)=O)NC(=O)CNC(=O)[C@@H]1CCCN1C(=O)[C@H](Cc1c[nH]c2ccccc12)NC(=O)[C@H](Cc1ccccc1)NC(=O)[C@H](CCCNC(=N)N)NC(=O)[C@H](CC(C)C)NC(=O)[C@H](Cc1c[nH]c2ccccc12)NC(=O)[C@H](Cc1c[nH]cn1)NC(=O)[C@@H](N)CCCCN)C(=O)N[C@@H](Cc1ccc(O)cc1)C(=O)O [compound 411] (H-KHWLRFWPGQPMY-OH; N-terminus and C-terminus assumed) | <90 | <90 | 100 |  |  |  |
| CC[C@H](C)[C@H](NC(=O)[C@H](CCCNC(=N)N)NC(=O)[C@H](CC(C)C)NC(=O)[C@H](Cc1c[nH]c2ccccc12)NC(=O)[C@H](Cc1c[nH]cn1)NC(=O)[C@@H](N)CCCCN)C(=O)N[C@@H](Cc1c[nH]c2ccccc12)C(=O)N1CCC[C@H]1C(=O)NCC(=O)N[C@@H](CCC(N)=O)C(=O)N1CCC[C@H]1C(=O)N[C@@H](CCSC)C(=O)N[C@@H](Cc1ccc(O)cc1)C(=O)O [compound 412] (H-KHWLRIWPGQPMY-OH; N-terminus and C-terminus assumed) | <90 | <90 | 100 |  |  |  |
| CSCC[C@H](NC(=O)[C@H](Cc1ccc(O)cc1)NC(=O)[C@H](CCCNC(=N)N)NC(=O)[C@H](CCCNC(=N)N)NC(=O)[C@H](CCCNC(=N)N)NC(=O)[C@H](CCCNC(=N)N)NC(=O)[C@H](CCCNC(=N)N)NC(=O)[C@H](CCCNC(=N)N)NC(=O)[C@H](CCCNC(=N)N)NC(=O)[C@@H](N)CCCNC(=N)N)C(=O)N1CCC[C@H]1C(=O)N[C@@H](CCC(N)=O)C(=O)NCC(=O)N1CCC[C@H]1C(=O)N[C@@H](CCCCN)C(=O)N[C@@H](CC(C)C)C(=O)N[C@@H](CCC(N)=O)C(=O)N[C@@H](CC(C)C)C(=O)N[C@@H](Cc1c[nH]c2ccccc12)C(=O)N[C@@H](Cc1c[nH]cn1)C(=O)N[C@@H](Cc1c[nH]c2ccccc12)C(=O)O [compound 420] (H-RRRRRRRRYMPQGPKLQLWHW-OH; N-terminus and C-terminus assumed) |  |  | 100 |  |  | 100 |
